# What was measured:
# histamine H3 receptor [1] = molecular target: T1, histamine H3 receptor (Rattus norvegicus, UniProt Q9QYN8); test: Histamine H3 receptor binding assay ([3H]-Nα-methylhistamine binding to rat striatum homogenate); conditions: 1 μmol/L test compound; [3H]-Nα-methylhistamine 1 nmol/L; striata of Sprague-Dawley male rats, 25° C., 1 hour; read-out: Inhibition ratio of [3H]-Nα-methylhistamine binding
# T1 construct: from tissue; host or cells: rat striatum (Sprague-Dawley, male, 6 weeks), membrane homogenate
# T1 sequence (Q9QYN8 whole entry): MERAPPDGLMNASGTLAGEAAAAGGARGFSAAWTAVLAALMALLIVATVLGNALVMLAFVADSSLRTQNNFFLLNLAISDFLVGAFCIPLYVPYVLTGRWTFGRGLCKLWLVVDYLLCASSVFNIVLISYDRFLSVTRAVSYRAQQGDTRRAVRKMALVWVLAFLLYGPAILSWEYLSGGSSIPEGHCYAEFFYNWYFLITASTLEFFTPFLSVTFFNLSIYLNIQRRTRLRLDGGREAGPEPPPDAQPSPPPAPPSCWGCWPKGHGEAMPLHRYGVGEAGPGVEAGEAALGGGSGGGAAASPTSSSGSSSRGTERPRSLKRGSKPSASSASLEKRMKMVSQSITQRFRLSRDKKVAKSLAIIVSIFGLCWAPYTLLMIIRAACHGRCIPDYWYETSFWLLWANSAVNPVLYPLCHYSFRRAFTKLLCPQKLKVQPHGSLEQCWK
# Outline: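 Rat striatum membranes (20 μg protein) incubated with [3H]-Nα-methylhistamine 1 nmol/L in 50 mmol/L Tris/HCl pH 7.4, 5 mmol/L EDTA, 1 hour at 25° C; bound ligand by filtration and scintillation counting. Nonspecific binding defined with 10 μmol/L thioperamide; % inhibition reported at 1 μmol/L compound.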
# histamine H3 receptor [2] = molecular target: T1, histamine H3 receptor; test: Inhibitory effect on histamine release suppressive action of histamine H3 receptor agonist (Nα-methylhistamine) in rat forebrain synaptosomes; type: biochemical; conditions: 1 μmol/L test compound and 1 μmol/L Nα-methylhistamine, potassium 30 mmol/L stimulation, read-out: Inhibition ratio of the [3H]-histamine release suppressive action of Nα-methylhistamine
# Protocol: To the forebrains of Sprague-Dawley male rats (6 to 8 weeks of age), a 30-fold volume of a 0.32 mol/L aqueous sucrose solution was added and the forebrains were homogenized. The resulting homogenate was centrifuged (1,000×g, 4° C., 10 min), and to the obtained supernatant, an equivalent volume of Krebs-Ringer solution [120 mmol/L sodium chloride, 0.8 mmol/L potassium chloride, 2.6 mmol/L calcium chloride, 0.67 mmol/L magnesium sulfate, 1.2 mmol/L potassium dihydrogen phosphate, 27.5 mmol/L sodium bicarbonate, 10 mmol/L glucose (pH 7.3)] was added, and the resulting mixture was centrifuged (10,000×g, 4° C., 15 min). To the obtained precipitate, a 15-fold volume of Krebs-Ringer solution was added to suspend the precipitate. Then, the concentration of protein in the resulting tissue homogenate (synaptosomes) was measured and used for a test.
# To the synaptosomes (300 μg in terms of protein amount) prepared by the above-described method, a [^3H]-histidine solution [final concentration: […] (740 kBq)/mL]: 6 μl of a 37 MBq/mL (specific activity: […]) solution] was added, and the total volume was adjusted to 300 μL with Krebs-Ringer solution. Then, the resulting mixture was incubated at 37° C. for 30 minutes and centrifuged (10,000×g, 25° C., 3 min). To the resulting precipitate (synaptosomes), 300 μL of Krebs-Ringer solution was added, and the mixture was incubated at 37° C. for 5 minutes and centrifuged (10,000×g, 25° C., 3 min). This procedure was repeated 5 times, whereby washing of synaptosomes was carried out. The resulting synaptosomes were suspended in 100 μL of Krebs-Ringer solution, and the resulting suspension was used for the following procedure.
# A test compound and N^α-methylhistamine were separately dissolved in Krebs-Ringer solution to give a concentration of 20 μmol/L (the resulting mixtures were referred to as a test compound solution and a N^α-methylhistamine solution, respectively). To 100 μL of the above-described suspended synaptosomes (300 μg in terms of protein amount), 140 μL of Krebs-Ringer solution was added. Then, 30 μL of the test compound solution and 30 μL of the N^α-methylhistamine solution were added thereto, and the resulting mixture was incubated at 37° C. for 2 minutes. Then, an equivalent volume of a stimulating solution [64 mmol/L sodium chloride, 56.8 mmol/L potassium chloride, 2.6 mmol/L calcium chloride, 0.67 mmol/L magnesium sulfate, 1.2 mmol/L potassium dihydrogen phosphate, 27.5 mmol/L sodium bicarbonate, 10 mmol/L glucose (pH 7.3)] (final potassium concentration: 30 mmol/L) was added, and the resulting mixture was incubated at 37° C. for 2 minutes to release [^3H]-histamine. The reaction mixture was centrifuged (10,000×g, 25° C., 3 min), and the obtained supernatant was passed through Amberlite CG-50 column (250 μL), and the non-adsorbed fractions were discarded. Then, 2 mL of 50 mmol/L [[…]]/hydrochloric acid (HCl) (pH 7.5) (Tris) was passed through the column 3 times, and 2 mL of distilled water, and 1.5 mL of a 0.2 mol/L aqueous sodium hydroxide solution were passed through the column in this order, and the eluted fractions were discarded. Then, 2 mL of a 0.2 mol/L aqueous sodium hydroxide solution was passed through the column, and the eluted fraction was recovered in a scintillation vial. Then, 8 mL of Ultimagold (Perkin Elmer) was added to the recovered eluted solution, and the radioactivity ([^3H]-histamine) was measured using a liquid scintillation counter. The inhibitory action of the test compound on the histamine release suppressive action of N^α-methylhistamine was evaluated by obtaining the inhibition ratio to the histamine release suppressive action in the presence of 1 μmol/L No-methylhistamine and 1 μmol/L of the test compound. The inhibition ratio of the [^3H]-histamine release suppressive action was calculated using the following Equation (2). […]
Structure (SMILES),inhibition at 1 µM (histamine H3 receptor [1]),melting point,inhibition at 1 µM (histamine H3 receptor [2])
"C[C@H]1CCCN1CCN1CCN(CCCN2CCCCC2)C1=C(C#N)C#N [Compound 58, {1-[2-((S)-2-methylpyrrolidin-1-yl)ethyl]-3-(3-piperidinopropyl)imidazolidin-2-ylidene}malononitrile]",≥ 80%,95 to 96 °C,≥ 70%
"CC1CCCN1CCCN1CCN(CCCN2CCCC2C)C1=C(C#N)C#N (stereo not drawn) [Compound 65, {1,3-Bis[3-(2-methylpyrrolidin-1-yl)propyl]imidazolidin-2-ylidene}malononitrile]",≥ 80%,89 to 93 °C,≥ 70%
"C[C@H]1CCCN1CCCN1CCN(CCCN2CCC[C@@H]2C)C1=C(C#N)C#N [Compound 115, {1,3-Bis[3-((S)-2-methylpyrrolidin-1-yl)propyl]imidazolidin-2-ylidene}malononitrile]",≥ 80%,79 to 80 °C,≥ 70%
"CC1CCCN1CCCN1CCN(CCCN2CCC[C@@H]2CO)C1=C(C#N)C#N (stereo partly drawn) [Compound 119, {1-[3-((R)-2-hydroxymethylpyrrolidin-1-yl)propyl]-3-[3-(2-methylpyrrolidin-1-yl)propyl]imidazolidin-2-ylidene}malononitrile]",≥ 80%,57 to 59 °C,≥ 70%
"CC1CCCN1CCCN1CCN(CCCN2CCCC2C)C1=CS(=O)(=O)CC#N (stereo not drawn) [Compound 137, {1,3-Bis[3-(2-methylpyrrolidin-1-yl)propyl]imidazolidin-2-ylidene}methanesulfonylacetonitrile]",≥ 80%,106 to 110 °C,≥ 70%
"N#CC(C#N)=C(NCCN1CCCCC1)N1CCC(N2CCCCC2)CC1 [Compound 143, [(2-Piperidinoethylamino)(4-piperidinopiperidino)methylene]malononitrile]",≥ 80%,198 to 200 °C,≥ 70%
"CN(CCN1CCCCC1)C(=C(C#N)C#N)N1CCC(N2CCCCC2)CC1 [Compound 144, {[Methyl(2-piperidinoethyl)amino](4-piperidinopiperidino)methylene}malononitrile]",≥ 80%,109 to 111 °C,≥ 70%
"CN(CCCN1CCCCC1)C(=C(C#N)C#N)N1CCC(N2CCCC2)CC1 [Compound 159, {[N-methyl-N-(3-piperidinopropyl)amino][4-(pyrrolidin-1-yl)piperidino]methylene}malononitrile]",≥ 80%,116 to 117 °C,≥ 70%
"N#CC(C#N)=C(NCCCN1CCCCC1)N1CCC(N2CCCCC2)CC1 [Compound 160, [(4-Piperidinopiperidino)(3-piperidinopropylamino)methylene]malononitrile]",≥ 80%,117 to 118 °C,≥ 70%
"CN(CCCN1CCCCC1)C(=C(C#N)C#N)N1CCC(N2CCCCC2)CC1 [Compound 161, {[N-methyl-N-(3-piperidinopropyl)amino](4-piperidinopiperidino)methylene}malononitrile]",≥ 80%,104 to 105 °C,≥ 70%
"N#CC(C#N)=C(NCCCN1CCOCC1)N1CCC(N2CCCCC2)CC1 [Compound 165, [(4-Piperidinopiperidino)(3-morpholinopropylamino)methylene]malononitrile]",≥ 80%,77 to 80 °C,≥ 70%
CN(CCCN1CCOCC1)C(=C(C#N)C#N)N1CCC(N2CCCCC2)CC1 [Compound 166],≥ 80%,104 to 106 °C,≥ 70%
"CC(C)N1CCC(N(C)C(=C(C#N)C#N)N2CCC(N3CCCCC3)CC2)CC1 [Compound 176, {[N-(1-isopropylpiperidin-4-yl)-N-methylamino](4-piperidinopiperidino)methylene}malononitrile]",≥ 80%,129 to 130 °C,≥ 70%
"CC(C)N1CCC(N(C)C(=C(C#N)C#N)N2CCC(CN3CCCC3C)CC2)CC1 (stereo not drawn) [Compound 181, {[N-(1-isopropylpiperidin-4-yl)-N-methylamino][4-(2-methylpyrrolidin-1-ylmethyl)piperidino]methylene}malononitrile]",≥ 80%,138 to 140 °C,≥ 70%
"C[C@@H]1CCCN1CCN1CCN(CCN2CCC[C@H]2C)C1=C(C#N)C#N [Compound 189, {1,3-Bis[2-((R)-2-methylpyrrolidin-1-yl)ethyl]imidazolidin-2-ylidene}malononitrile]",≥ 80%,139 to 141 °C,≥ 70%
"C[C@@H]1CCCN1CCN1CCN(CCCN2CCCCC2)C1=C(C#N)C#N [Compound 193, {1-[2-((R)-2-methylpyrrolidin-1-yl)ethyl]-3-(3-piperidinopropyl)imidazolidin-2-ylidene}malononitrile]",≥ 80%,89 to 90 °C,≥ 70%
"C[C@@H]1CCCN1CCCN1C(=C(C#N)C#N)N(CCCN2CCC[C@H]2C)c2ccccc21 [Compound 205, {1,3-Bis[3-((R)-2-methylpyrrolidin-1-yl)propyl]benzimidazolidin-2-ylidene}malononitrile]",≥ 80%,96 to 97 °C,≥ 70%
"N#CC(C#N)=C1N(CCCN2CCCCC2)CCN1C1CCN(C2CC2)CC1 [Compound 226, [1-(1-Cyclopropylpiperidin-4-yl)-3-(3-piperidinopropyl)imidazolidin-2-ylidene]malononitrile]",≥ 80%,104 to 105 °C,≥ 70%
"CC(C)N1CCC(N2CCN(CCCN3CCSCC3)C2=C(C#N)C#N)CC1 [Compound 231, [1-(1-Isopropylpiperidin-4-yl)-3-(3-thiomorpholin-1-ylpropyl)imidazolidin-2-ylidene]malononitrile]",≥ 80%,124 to 125 °C,≥ 70%
"CC(C)N1CCC(N2CCN(CCCN3CCC(=O)CC3)C2=C(C#N)C#N)CC1 [Compound 233, {1-(1-Isopropylpiperidin-4-yl)-3-[3-(4-oxopiperidino)propyl]imidazolidin-2-ylidene}malononitrile]",≥ 80%,103 to 105 °C,≥ 70%
"CC(C)N1CCC(N2CCN(CCCN3C[C@@H](C)O[C@@H](C)C3)C2=C(C#N)C#N)CC1 [Compound 234, {3-[3-(Cis-2,6-dimethylmorpholino)propyl]-1-(1-isopropylpiperidin-4-yl)imidazolidin-2-ylidene}malononitrile]",≥ 80%,117 to 118 °C,≥ 70%
